According to EP0238198A2, “Method of modifying the lipid structure function and expression of cell membranes and pharmaceutical compositions for use therein” (Habib, Nagy Adly, priority 1986, dated 1987):
Where two headings read alike, the source gives them in different places.

Assays:
[1] = system: mammary carcinoma; experiment: NMU-induced mammary carcinoma in rats, Example 1; format: in vivo, female Sprague-Dawley rats
Experimental: NMU was administered intravenously to thirty female Sprague-Dawley rats weighing approximately 200g. It has been well established that with this animal model breast cancers will develop in the majority by 12 weeks from the commencement of the giving of the carcinogen (Gullino, P.M., Pettigrew, H.M., and Grantham, E.H., I. National Cancer Inst. 1975, 54, 401-409). The rats were divided into two groups, with those of the first group (twenty rats) receiving NMU alone, and those of the second group (ten rats) receiving NMU plus stearic acid. NMU in 3% acetic acid was dissolved in distilled water (20mg/ml) and was given in three intravenous injections of 5mg/100g body weight at weeks 1, 4 and 8. […] The onset of tumours was monitored by daily inspection and by palpation of the mammary regions twice weekly. At week 22, all surviving animals were sacrificed, and autopsies were performed. The tumours located thereby were dissected and examined histologically. In the control animals who were given carcinogen alone 19 out of the 20 animals had developed breast cancers by week 16 of the experiment, with a mean latent period of 72 days. […] The range of tumour weight/rat was 5g to 47.8g with a mean value of 23.6g per rat (excluding the tumour free animal). […] These five rats had seven tumours in all, with a mean of 1.4 tumours per rat (p less than 0.001 compared to the control group). The range of tumour weight/rat was 4.2g to 21.2g, with an average of 16.4g/rat (p less than 0.01 compared to the control group). […] Of the remaining 8 live rats from this group which were killed at week 22, only three had tumours, the other five being tumour-free.

[2] = system: type 2 herpes simplex virus (HSV); experiment: HSV2 replication in human embryonic lung fibroblasts (virus yield); format: cell-based, HSV type 2; settings: Human alphaherpesvirus 2, Fibroblast, 28 h; for inhibition at 25 µM: stearic acid 25 µM; for inhibition at 50 µM: stearic acid 50 µM; for inhibition at 100 µM: stearic acid 100 µM
Experimental: Stearic and iodinated stearic acids were assayed for their inhibitory effects on the replication of type 2 herpes simplex virus (HSV) in sub-confluent monolayer cultures of human embryonic lung fibroblasts. […] This was accomplished by reacting hydriodic acid with oleic acid in acetic acid at 20°C. Excess iodine was removed at the end of the reaction by the addition of an excess of sodium thiosulphate, and the product fatty acid was extracted into hexane.
Bovine serum albumin conjugates of the fatty acids (prepared according to the method of A.A.Spector and-J.C.Hoak, J.Anal.Biochem. 1969, 32, 297-302) were added to the cell culture medium at various concentrations in the range 25 - 100 micromolar final concentration and at various times before and after (from 0 to 12 hours) infection with partially purified clinical isolates of HSV type 2, at a multiplicity of infection of 0.1 plaque forming units/cell.
28 hours after infection the titre of infectious virus in the culture supernatants was determined by standard infectious centre techniques on fresh human embryonic lung fibroblasts.

[3] = NMU plus stearic acid 10mg s.c. weekly
[4] = time relative to infection 0 hours, read-out: % reduction in virus yield compared with control cultures
[5] = time relative to infection 1 hours, read-out: % reduction in virus yield compared with control cultures
[6] = time relative to infection 2 hours, read-out: % reduction in virus yield compared with control cultures
[7] = time relative to infection 3 hours, read-out: % reduction in virus yield compared with control cultures
[8] = time relative to infection 4 hours, read-out: % reduction in virus yield compared with control cultures
[9] = time relative to infection 8 hours, read-out: % reduction in virus yield compared with control cultures
[10] = time relative to infection 12 hours, read-out: % reduction in virus yield compared with control cultures
[11] = time relative to infection -1 hours, read-out: % reduction in virus yield compared with control cultures
[12] = time relative to infection -2 hours, read-out: % reduction in virus yield compared with control cultures
[13] = time relative to infection -3 hours, read-out: % reduction in virus yield compared with control cultures
[14] = time relative to infection -4 hours, read-out: % reduction in virus yield compared with control cultures
[15] = time relative to infection -8 hours, read-out: % reduction in virus yield compared with control cultures
[16] = time relative to infection -12 hours, read-out: % reduction in virus yield compared with control cultures

CCCCCCCCCCCCCCCCCC(=O)O [stearic acid, octadecanoic acid]
animals that had developed mammary tumours by week 16 ([1]; NMU plus stearic acid 10mg in liquid paraffin s.c. weekly from second week, ten rats, NMU alone 19 out of 20): five of the original ten | rats with tumours among the 8 live rats killed at week 22 [1, 3]: three | tumour-free rats among the 8 live rats killed at week 22 [1, 3]: five | mean tumours per rat ([1]; NMU plus stearic acid 10mg s.c. weekly, NMU alone 2.68, p less than 0.001): 1.4 tumours per rat | average tumour weight ([1]; NMU plus stearic acid 10mg s.c. weekly, NMU alone 23.6g per rat, p less than 0.01): 16.4 g/rat | mean latent period ([1]; NMU plus stearic acid 10mg s.c. weekly, NMU alone 72 days): 74 days | rats that had died by week 22 ([1]; NMU plus stearic acid 10mg s.c. weekly, of ten rats, NMU alone all 19 with tumours died): 2 | inhibition at 75 µM ([2]; 75 micromolar in the culture medium, cells treated for 3-4 hours before infection, read-out: maximum anti-viral activity (reduction in virus yield)): 48% | inhibition at 25 µM [2, 4]: 0% | inhibition at 25 µM [2, 5]: 5% | inhibition at 25 µM [2, 6]: 0% | inhibition at 25 µM [2, 7]: 10% | inhibition at 25 µM [2, 8]: 1% | inhibition at 25 µM [2, 9]: 0% | inhibition at 25 µM [2, 10]: 3% | inhibition at 25 µM [2, 11]: 6% | inhibition at 25 µM [2, 12]: 14% | inhibition at 25 µM [2, 13]: 4% | inhibition at 25 µM [2, 14]: 2% | inhibition at 25 µM [2, 15]: 10% | inhibition at 25 µM [2, 16]: 0% | inhibition at 50 µM [2, 4]: 7% | inhibition at 50 µM [2, 5]: 8% | inhibition at 50 µM [2, 6]: 0% | inhibition at 50 µM [2, 7]: 10% | inhibition at 50 µM [2, 8]: 0% | inhibition at 50 µM [2, 9]: 5% | inhibition at 50 µM [2, 10]: 9% | inhibition at 50 µM [2, 11]: 27% | inhibition at 50 µM [2, 12]: 30% | inhibition at 50 µM [2, 13]: 27% | inhibition at 50 µM [2, 14]: 8% | inhibition at 50 µM [2, 15]: 0% | inhibition at 50 µM [2, 16]: 0% | inhibition at 75 µM ([2]; stearic acid 75 µM, time relative to infection 0 hours, read-out: % reduction in virus yield compared with control cultures): 18% | inhibition at 75 µM ([2]; stearic acid 75 µM, time relative to infection 1 hours, read-out: % reduction in virus yield compared with control cultures): 0% | inhibition at 75 µM ([2]; stearic acid 75 µM, time relative to infection 2 hours, read-out: % reduction in virus yield compared with control cultures): 9% | inhibition at 75 µM ([2]; stearic acid 75 µM, time relative to infection 3 hours, read-out: % reduction in virus yield compared with control cultures): 0% | inhibition at 75 µM ([2]; stearic acid 75 µM, time relative to infection 4 hours, read-out: % reduction in virus yield compared with control cultures): 3% | inhibition at 75 µM ([2]; stearic acid 75 µM, time relative to infection 8 hours, read-out: % reduction in virus yield compared with control cultures): 10% | inhibition at 75 µM ([2]; stearic acid 75 µM, time relative to infection 12 hours, read-out: % reduction in virus yield compared with control cultures): 5% | inhibition at 75 µM ([2]; stearic acid 75 µM, time relative to infection -1 hours, read-out: % reduction in virus yield compared with control cultures): 41% | inhibition at 75 µM ([2]; stearic acid 75 µM, time relative to infection -2 hours, read-out: % reduction in virus yield compared with control cultures): 38% | inhibition at 75 µM ([2]; stearic acid 75 µM, time relative to infection -3 hours, read-out: % reduction in virus yield compared with control cultures): 47% | inhibition at 75 µM ([2]; stearic acid 75 µM, time relative to infection -4 hours, read-out: % reduction in virus yield compared with control cultures): 48% | inhibition at 75 µM ([2]; stearic acid 75 µM, time relative to infection -8 hours, read-out: % reduction in virus yield compared with control cultures): 3% | inhibition at 75 µM ([2]; stearic acid 75 µM, time relative to infection -12 hours, read-out: % reduction in virus yield compared with control cultures): 8% | inhibition at 100 µM [2, 4]: 11% | inhibition at 100 µM [2, 5]: 14% | inhibition at 100 µM [2, 6]: 8% | inhibition at 100 µM [2, 7]: 11% | inhibition at 100 µM [2, 8]: 0% | inhibition at 100 µM [2, 9]: 7% | inhibition at 100 µM [2, 10]: 1% | inhibition at 100 µM [2, 11]: 30%
